The source made the active and inactive calls.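 The calls were made as follows: active = mean IC50 of 15000 nM or lower against heat shock reporter, a sign of off-target artifact; inactive = the rest.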
The molecules below were run on C. elegans VP596 hsp-16.2 GFP/RFP heat-shock reporter fluorescence (assay: heat-shock hsp-16.2 GFP reporter inhibition, SAR follow-up, counter-screen for SKN-1 inhibitor project, whole organism, C. elegans VP596, GFP/RFP ratio, round 3 (AID 743023)).

| SMILES | IC50 |
| --- | --- |
| COc1ccc(-c2csc(-c3ccccc3)n2)cc1 | > 64 µM (inactive) |
| Cc1ccc(-c2nc(-c3ccncc3)sc2C)cc1 | > 64 µM (inactive) |
| Cc1sc(C2CCNCC2)nc1-c1ccccc1 | > 64 µM (inactive) |
| Clc1cccc(-c2csc(-c3ccncc3)n2)c1 | > 64 µM (inactive) |
| COc1ccc(-c2csc(-c3cccnc3)n2)cc1 | > 64 µM (inactive) |
| COc1ccccc1-c1csc(-c2ccncc2)n1 | > 64 µM (inactive) |
| Cc1cccc(-c2csc(-c3ccncc3)n2)c1 | > 64 µM (inactive) |
| Clc1ccc(-c2csc(C3CCNCC3)n2)cc1 | > 64 µM (inactive) |
| N#Cc1ccc(-c2csc(-c3ccncc3)n2)cc1 | > 64 µM (inactive) |
| Cc1sc(-c2ccncc2)nc1-c1ccc(F)cc1 | > 64 µM (inactive) |
| Clc1ccc(-c2csc(-c3ccccc3)n2)cc1 | > 64 µM (inactive) |
| c1cc(-c2nc(-c3nccs3)cs2)ccn1 | > 64 µM (inactive) |
| Clc1ccc(-c2csc(-c3ccncc3)n2)cc1Cl | > 64 µM (inactive) |
| c1ccc(-c2csc(-c3ccccn3)n2)cc1 | > 64 µM (inactive) |
| c1ccc(-c2csc(-c3cccnc3)n2)cc1 | > 64 µM (inactive) |
| Cc1sc(-c2ccncc2)nc1-c1ccccc1 | > 64 µM (inactive) |
| Clc1ccc(-c2csc(-c3ccccn3)n2)cc1 | > 64 µM (inactive) |
| Cc1ccc(-c2csc(-c3cccnc3)n2)cc1 | > 64 µM (inactive) |
| c1cc(-c2nc(C3CC3)cs2)ccn1 | > 64 µM (inactive) |
| Clc1ccccc1-c1csc(-c2ccncc2)n1 | > 64 µM (inactive) |
| Fc1ccc(-c2csc(C3CCNCC3)n2)cc1 | > 64 µM (inactive) |
| Cc1ccc(-c2csc(-c3ccncc3)n2)cc1 | > 64 µM (inactive) |
| Clc1ccc(-c2csc(-c3ccncc3)n2)cc1 | > 64 µM (inactive) |
| Cc1ccc(-c2csc(-c3ccccc3)n2)cc1 | > 64 µM (inactive) |

| SMILES | IC50 |
| --- | --- |
| Fc1ccc(-c2csc(-c3ccncc3)n2)cc1 | > 64 µM (inactive) |
| COc1cccc(-c2csc(-c3ccncc3)n2)c1 | > 64 µM (inactive) |
| Fc1ccc(-c2csc(-c3ccccn3)n2)cc1 | > 64 µM (inactive) |
| Cc1ccc(-c2csc(-c3ccccn3)n2)cc1 | > 64 µM (inactive) |
| COc1ccc(-c2csc(-c3ccncc3)n2)cc1 | > 64 µM (inactive) |
| Fc1ccc(-c2csc(-c3ccccc3)n2)cc1 | > 64 µM (inactive) |
| c1ccc(-c2csc(C3CCNCC3)n2)cc1 | > 64 µM (inactive) |
| FC(F)(F)c1ccc(-c2csc(-c3ccncc3)n2)cc1 | > 64 µM (inactive) |
| CCCc1cc(-c2nc(-c3ccc(C)cc3)cs2)ccn1 | > 64 µM (inactive) |
| COc1ccc(-c2csc(C3CCNCC3)n2)cc1 | > 64 µM (inactive) |
| COc1ccc(-c2csc(-c3ccccn3)n2)cc1 | > 64 µM (inactive) |
| Cc1csc(-c2ccncc2)n1 | > 64 µM (inactive) |
| Cc1ccccc1-c1csc(-c2ccncc2)n1 | > 64 µM (inactive) |
| Cc1ccc(-c2csc(C3CCNCC3)n2)cc1 | > 64 µM (inactive) |
| Clc1ccc(-c2csc(-c3ccncc3)n2)c(Cl)c1 | > 64 µM (inactive) |
| Cc1sc(-c2ccncc2)nc1-c1ccc(Cl)cc1 | > 64 µM (inactive) |
| COc1ccc(-c2nc(-c3ccncc3)sc2C)cc1 | > 64 µM (inactive) |
| CC(C)(C)c1csc(-c2ccncc2)n1 | > 64 µM (inactive) |
| Clc1ccc(-c2csc(-c3cccnc3)n2)cc1 | > 64 µM (inactive) |
| c1ccc(-c2csc(-c3ccncc3)n2)cc1 | > 64 µM (inactive) |
| COC(=O)c1ccc(-c2csc(-c3ccncc3)n2)cc1 | > 64 µM (inactive) |
| c1ccc(-c2nc(-c3cccnc3)cs2)cc1 | > 64 µM (inactive) |
| Fc1ccc(-c2csc(-c3cccnc3)n2)cc1 | > 64 µM (inactive) |
| CCCc1cc(-c2nc(-c3ccc(NS(C)(=O)=O)cc3)cs2)ccn1 | > 64 µM (inactive) |
